According to BindingDB's records for doi:10.1021/jm200293r (University of Eastern Finland, 2011):

Target: Diamine acetyltransferase 1 (Mus musculus) (UniProt P48026)
Assay: Competitive inhibition at mouse recombinant SSAT expressed in Escherichia coli strain BL21(DE3)

Chain of Diamine acetyltransferase 1 (Mus musculus) (P48026 whole entry, looked up): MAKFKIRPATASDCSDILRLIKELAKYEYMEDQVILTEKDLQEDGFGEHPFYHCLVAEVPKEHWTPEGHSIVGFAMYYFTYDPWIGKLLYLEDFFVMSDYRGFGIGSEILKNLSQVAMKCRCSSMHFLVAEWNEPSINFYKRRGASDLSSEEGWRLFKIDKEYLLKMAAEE

- Ki: 52 µM
Structure (SMILES): CC(CCN)NCCCCN (stereo unspecified)
